Source: ChEMBL document CHEMBL5550113, “Bioisoteres for carboxylic acids: From ionized isosteres to novel unionized replacements” (Bioorg Med Chem, 2024)

Columns and labels:
CDK12/Cyclin K = CDK12/Cyclin K (Homo sapiens, UniProt Q9NYV4); assay: Inhibition of 6His-tagged wild type CDK12/cyclin K (unknown origin) infected in insect cells incubated for 1 hr by TR-FRET assay
Cavia porcellus = species: Cavia porcellus; assay: Binding affinity to Guinea pig Leukotriene receptor; settings: filed as antagonist
[1] = Toxicity in po dosed Guinea pig assessed as effective dose; format: organism-based, Cavia porcellus; settings: in vivo

CDK12/Cyclin K, sequence (O75909 whole entry): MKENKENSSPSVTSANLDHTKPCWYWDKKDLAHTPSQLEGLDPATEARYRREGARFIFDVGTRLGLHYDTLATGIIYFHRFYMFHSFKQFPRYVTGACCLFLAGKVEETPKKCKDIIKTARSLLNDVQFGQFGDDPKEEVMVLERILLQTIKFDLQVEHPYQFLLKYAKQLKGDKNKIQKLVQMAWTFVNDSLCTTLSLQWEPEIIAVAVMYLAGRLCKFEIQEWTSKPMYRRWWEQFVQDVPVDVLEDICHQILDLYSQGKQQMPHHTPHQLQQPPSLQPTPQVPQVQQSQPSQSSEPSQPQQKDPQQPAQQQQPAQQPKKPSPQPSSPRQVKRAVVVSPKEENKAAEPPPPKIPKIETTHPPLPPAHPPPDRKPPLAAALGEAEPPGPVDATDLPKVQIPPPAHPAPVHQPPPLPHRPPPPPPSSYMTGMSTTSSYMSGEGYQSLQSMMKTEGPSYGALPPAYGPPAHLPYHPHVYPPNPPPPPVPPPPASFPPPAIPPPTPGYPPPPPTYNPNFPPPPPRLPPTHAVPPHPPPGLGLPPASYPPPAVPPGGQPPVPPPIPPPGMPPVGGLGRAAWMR
CDK12/Cyclin K, sequence (Q9NYV4 whole entry): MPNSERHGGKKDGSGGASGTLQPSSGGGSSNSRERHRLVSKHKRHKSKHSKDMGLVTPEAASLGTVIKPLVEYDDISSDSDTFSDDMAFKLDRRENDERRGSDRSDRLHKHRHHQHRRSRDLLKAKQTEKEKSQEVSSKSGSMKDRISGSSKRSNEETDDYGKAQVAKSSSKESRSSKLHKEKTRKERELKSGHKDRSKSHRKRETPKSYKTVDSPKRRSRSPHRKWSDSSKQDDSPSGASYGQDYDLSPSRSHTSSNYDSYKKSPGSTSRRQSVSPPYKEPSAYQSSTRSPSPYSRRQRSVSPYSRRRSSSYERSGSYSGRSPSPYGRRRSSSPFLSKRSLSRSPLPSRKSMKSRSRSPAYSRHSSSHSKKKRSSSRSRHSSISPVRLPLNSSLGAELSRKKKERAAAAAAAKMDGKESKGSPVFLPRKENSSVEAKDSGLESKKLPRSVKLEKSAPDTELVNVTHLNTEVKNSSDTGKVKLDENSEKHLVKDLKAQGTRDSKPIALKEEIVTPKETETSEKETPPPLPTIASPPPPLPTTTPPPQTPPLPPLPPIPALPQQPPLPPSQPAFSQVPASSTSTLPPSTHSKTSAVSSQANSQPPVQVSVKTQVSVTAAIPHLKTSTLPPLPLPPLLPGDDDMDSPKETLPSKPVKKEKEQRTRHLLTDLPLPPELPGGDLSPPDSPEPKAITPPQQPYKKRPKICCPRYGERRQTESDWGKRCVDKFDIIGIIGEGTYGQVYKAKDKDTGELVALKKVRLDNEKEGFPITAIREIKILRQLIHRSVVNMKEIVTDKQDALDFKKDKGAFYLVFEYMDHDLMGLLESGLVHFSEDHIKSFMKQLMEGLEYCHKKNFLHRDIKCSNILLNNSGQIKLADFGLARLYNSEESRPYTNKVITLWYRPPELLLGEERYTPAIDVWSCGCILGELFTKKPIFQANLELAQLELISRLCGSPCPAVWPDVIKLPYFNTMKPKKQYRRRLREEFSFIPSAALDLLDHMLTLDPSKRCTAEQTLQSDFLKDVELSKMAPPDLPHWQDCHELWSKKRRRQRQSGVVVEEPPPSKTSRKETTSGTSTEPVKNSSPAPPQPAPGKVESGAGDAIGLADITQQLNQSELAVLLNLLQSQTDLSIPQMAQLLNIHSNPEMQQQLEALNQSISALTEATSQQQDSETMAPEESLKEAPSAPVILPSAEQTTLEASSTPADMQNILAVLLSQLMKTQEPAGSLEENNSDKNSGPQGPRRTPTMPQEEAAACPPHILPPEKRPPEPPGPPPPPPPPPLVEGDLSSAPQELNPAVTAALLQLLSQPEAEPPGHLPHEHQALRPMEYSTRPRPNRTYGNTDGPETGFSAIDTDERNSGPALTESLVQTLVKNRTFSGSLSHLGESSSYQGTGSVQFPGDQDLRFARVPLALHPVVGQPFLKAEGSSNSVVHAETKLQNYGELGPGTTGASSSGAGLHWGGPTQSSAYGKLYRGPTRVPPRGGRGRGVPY

Row | SMILES | EC50 (CDK12/Cyclin K) [nM] | pKb (Cavia porcellus) | ED50 [1] [mg/kg]
1 | CC[C@H](CO)Nc1nc(NCCCc2cccc(C)n2)c2ncn(C(C)C)c2n1 | 36 | – | –
2 | CC[C@H](CO)Nc1nc(NCCCc2ccccc2)c2ncn(C(C)C)c2n1 | 57 | – | –
3 | CC[C@H](CO)Nc1nc(NCCCc2ccc(C)c(C)c2)c2ncn(C(C)C)c2n1 | 18 | – | –
4 | CC[C@H](CO)Nc1nc(NCCCc2ccnn2C)c2ncn(C(C)C)c2n1 | 246 | – | –
5 | CC[C@H](CO)Nc1nc(NCc2ccn(-c3cccc(Cl)c3)n2)c2ncn(C(C)C)c2n1 | 44 | – | –
6 | CC[C@H](CO)Nc1nc(NCCCc2cccc(C)c2)c2ncn(C(C)C)c2n1 | 35 | – | –
7 | COc1cc(C(=O)NS(=O)(=O)c2ccccc2)ccc1Cc1cn(C)c2ccc(NC(=O)OC3CCCC3)cc12 | – | 9.69 | 2.5
8 | CC[C@H](CO)Nc1nc(NCc2ccc(-c3ccncc3)cc2)c2ncn(C(C)C)c2n1 | 36 | – | –
9 | CC[C@H](CO)Nc1nc(NCc2ccc(-c3ccccn3)c(=O)[nH]2)c2ncn(C(C)C)c2n1 | 21 | – | –
10 | COc1cc(C(=O)NS(=O)(=O)c2ccccc2C)ccc1Cc1cn(C)c2ccc(NC(=O)OC3CCCC3)cc12 [ZAFIRLUKAST] | – | – | 0.3

The next lines start with results.

Row | EC50 (CDK12/Cyclin K) [nM] | pKb (Cavia porcellus) | SMILES | ED50 [1] [mg/kg]
11 | 21 | – | CC[C@H](CO)Nc1nc(NCCCc2ccc(Cl)c(Cl)c2)c2ncn(C(C)C)c2n1 | –
12 | 17 | – | CC[C@H](CO)Nc1nc(NCc2ccc(-c3ccccc3)cc2)c2ncn(C(C)C)c2n1 | –
13 | 46 | – | CC[C@H](CO)Nc1nc(NCCCc2cccc(F)c2)c2ncn(C(C)C)c2n1 | –
14 | 28 | – | CC[C@H](CO)Nc1nc(NCc2ccc(-c3ccncc3)nc2)c2ncn(C(C)C)c2n1 | –
15 | 41 | – | CC[C@H](CO)Nc1nc(NCc2nc3ccc(F)c(F)c3[nH]2)c2ncn(C(C)C)c2n1 | –
16 | 15 | – | CC[C@H](CO)Nc1nc(NCc2ccc(-c3ccc(C)s3)cc2)c2ncn(C(C)C)c2n1 | –
17 | 78 | – | CC[C@H](CO)Nc1nc(NCc2ccc(-c3ccccn3)c(F)c2)c2ncn(C(C)C)c2n1 | –
18 | 603 | – | CC[C@H](CO)Nc1nc(NCCCc2ccco2)c2ncn(C(C)C)c2n1 | –
19 | 60 | – | CC[C@H](CO)Nc1nc(NCc2ccc3ccccc3c2)c2ncn(C(C)C)c2n1 | –
20 | 182 | – | CC[C@H](CO)Nc1nc(NCCCCCc2cccc3ccccc23)c2ncn(C(C)C)c2n1 | –
